The target of test [1] is T1, soluble guanylate cyclase α1β1 (sGC) (Homo sapiens, UniProt Q02108+Q02153).
T1 construct: gene GUCY1B1; α1β1 catalytic domain (sGCcat); with sGC α1 subunit (GUCY1A1)
T1 sequence (Q02153 408-619 limits assumed): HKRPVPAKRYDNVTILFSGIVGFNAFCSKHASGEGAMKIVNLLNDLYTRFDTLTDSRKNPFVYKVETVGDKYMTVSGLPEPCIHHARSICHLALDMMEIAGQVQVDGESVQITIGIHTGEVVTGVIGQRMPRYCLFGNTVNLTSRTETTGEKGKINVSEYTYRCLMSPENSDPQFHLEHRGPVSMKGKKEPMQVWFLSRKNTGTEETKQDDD
T1 sequence (Q02108 467-690): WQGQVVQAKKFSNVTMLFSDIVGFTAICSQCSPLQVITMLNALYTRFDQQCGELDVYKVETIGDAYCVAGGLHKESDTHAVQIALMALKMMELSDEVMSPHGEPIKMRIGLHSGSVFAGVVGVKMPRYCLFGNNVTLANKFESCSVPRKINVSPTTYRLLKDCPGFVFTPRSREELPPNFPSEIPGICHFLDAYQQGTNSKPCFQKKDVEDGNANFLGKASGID
Briefly: SPR (Biacore T200), concentration series. It is filed as binding. On the technique in general: SPR reads the build-up and loss of mass on a sensor chip optically.

Test [2] has as its target T2, soluble guanylate cyclase α1β1 (sGC) (Homo sapiens, UniProt Q02153).
T2 construct: gene GUCY1B1; full length sGC; with sGC α1 subunit (GUCY1A1)
T2 sequence (Q02153 1-619): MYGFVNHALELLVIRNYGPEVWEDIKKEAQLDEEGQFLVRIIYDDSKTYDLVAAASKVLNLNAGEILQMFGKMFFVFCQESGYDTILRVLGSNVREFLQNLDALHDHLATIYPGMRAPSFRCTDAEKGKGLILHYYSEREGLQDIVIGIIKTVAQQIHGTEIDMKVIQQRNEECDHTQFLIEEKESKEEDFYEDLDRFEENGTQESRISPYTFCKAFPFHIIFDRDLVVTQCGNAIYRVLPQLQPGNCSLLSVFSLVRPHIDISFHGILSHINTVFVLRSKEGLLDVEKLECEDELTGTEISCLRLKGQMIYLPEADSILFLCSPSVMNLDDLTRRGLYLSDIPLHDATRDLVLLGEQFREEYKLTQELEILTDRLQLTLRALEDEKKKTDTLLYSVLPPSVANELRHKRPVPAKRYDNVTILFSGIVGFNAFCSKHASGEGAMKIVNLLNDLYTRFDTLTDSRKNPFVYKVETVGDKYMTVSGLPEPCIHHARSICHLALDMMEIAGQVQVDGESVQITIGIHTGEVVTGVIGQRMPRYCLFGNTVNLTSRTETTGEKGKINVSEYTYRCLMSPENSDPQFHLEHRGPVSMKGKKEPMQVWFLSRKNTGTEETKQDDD
T2 sequence (Q02108 1-690 partner): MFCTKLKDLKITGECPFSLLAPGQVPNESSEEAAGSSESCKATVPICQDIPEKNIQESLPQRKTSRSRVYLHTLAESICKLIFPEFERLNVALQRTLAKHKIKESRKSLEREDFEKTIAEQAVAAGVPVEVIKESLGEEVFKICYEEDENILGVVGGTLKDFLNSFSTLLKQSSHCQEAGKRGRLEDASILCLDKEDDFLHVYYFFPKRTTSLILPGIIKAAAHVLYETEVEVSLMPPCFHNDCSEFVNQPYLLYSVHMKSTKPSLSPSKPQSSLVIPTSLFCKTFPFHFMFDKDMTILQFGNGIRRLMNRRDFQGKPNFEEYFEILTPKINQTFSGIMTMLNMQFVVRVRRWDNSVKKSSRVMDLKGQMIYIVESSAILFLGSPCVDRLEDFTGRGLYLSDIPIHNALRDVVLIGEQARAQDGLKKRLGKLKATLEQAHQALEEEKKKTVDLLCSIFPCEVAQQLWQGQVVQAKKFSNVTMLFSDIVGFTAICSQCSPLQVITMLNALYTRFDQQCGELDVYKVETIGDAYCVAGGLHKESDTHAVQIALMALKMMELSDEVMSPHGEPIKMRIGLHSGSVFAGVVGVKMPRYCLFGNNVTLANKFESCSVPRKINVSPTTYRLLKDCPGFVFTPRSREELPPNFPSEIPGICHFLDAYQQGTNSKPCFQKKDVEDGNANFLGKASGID
Briefly: SPR (Biacore T200) at […]. The class given is binding.

We go through 2 compounds from article PMC3978654, “Surface plasmon resonance using the catalytic domain of soluble guanylate cyclase allows the detection of enzyme activators^” (Bioorganic & Medicinal Chemistry Letters, 2014).

In test [1], `Nc1nc2c(ncn2[C@@H]2O[C@H](COP(=O)(O)OP(=O)(O)OP(=O)(O)O)[C@@H](O)[C@H]2O)c(=O)[nH]1` [GTP] registered a Kd of 326 µM.

With `O=C(O)CCCCN(CCc1ccccc1OCc1ccc(CCc2ccccc2)cc1)Cc1ccc(C(=O)O)cc1` [compound 1, BAY 58-2667], in test [2], the “SPR (Biacore T200) at 100 μM” value was “showed strong binding to the full length sGC and only non-specific binding to sGCcat”.

One may read the Kd as the constant that tells how readily two partners part at equilibrium.
